How the values were obtained:
Format in all cases: in vivo, human
ACTH = ACTH levels during mifepristone treatment of Cushing's syndrome patients; conditions: for ACTH Visit Change Values from Baseline / Ratio of ACTH Visit Change Values from Baseline per Baseline (ACTH_CHG/ACTH Baseline): Mean ± SD
From the text: (§1) The term “measuring the level,” in the context of cortisol, ACTH, mifepristone, or other compounds, refers to determining, detecting, or quantitating the amount, level, or concentration of, for example, cortisol, ACTH, mifepristone, or other compound in a sample obtained from a subject. Plasma or serum samples are often used for measuring ACTH or cortisol level.
(§2) The types of samples that are suitable for ACTH determination can be serum, plasma, saliva, urine, or any other biological fluid taken from a subject. In preferred embodiments, the sample is a serum sample, or is a plasma sample. The level of ACTH can be measured using various methods, including but not limited to, immunoassays, e.g., competitive immunoassay, radioimmunoassay (MA), immunofluorometric enzyme assay, and ELISA; competitive protein-binding assays; liquid chromatography (e.g., HPLC); and mass spectrometry, e.g., high-performance liquid chromatography/triple quadrupole-mass spectrometry (LC-MS/MS). Commercial kits for measuring ACTH are readily available, e.g., from Mayo clinic (Test ID: ACTH), Siemens Healthcare Global (Immulite® 2000 ACTH assay), and Roche Molecular Diagnostics (Catalog No. 03255751190). In preferred embodiments, ACTH levels are measured using a radioimmunoassay (RIA), most preferable a two-site MA, such as performed by Quest Diagnostics (Secaucus, N.J. 07094).
(§3) The Cushing's syndrome study reported herein was conducted in accordance with the Declaration of Helsinki and Good Clinical Practice (GCP) according to International Conference on Harmonization (ICH) guidelines.
(§4) Dosing Schedule Dosing was started with 300 mg of mifepristone once per day for 14 days. After 14 days, if no clinical improvement was seen but the drug was well tolerated, the dose of mifepristone was increased to 600 mg once per day. After 4 weeks of dosing at 600 mg once per day, if no clinical improvement was seen but the drug was well tolerated, the dose was increased to 900 mg once per day. Dose escalation was based on weight with the maximum dose no higher than 20 mg/kg/day. […] After 4 weeks of dosing at 900 mg once per day, if no clinical improvement was seen but the drug was well tolerated, the dose was increased to 1200 mg once per day. Study duration was 24 weeks.
(§5) Potassium levels were obtained on every subject at either screening or the pre-drug administration baseline visit, and then also at every scheduled post-baseline visit. Potassium levels post-baseline were therefore obtained as early as day 7 and through day 210 (week 30 was the last visit and was the 6 week follow-up visit). ACTH, and cortisol were measured at six visits (week 2 (day 14), week 6 (day 42), week 10 (day 70), week 16 (day 112), and week 24 (day 168) week 6 follow-up (day 210)).

[1] = system: subjects in an Alzheimer's study; test: Alzheimer's study: hypokalemia
From the text: Clinically meaningful hypokalemia (≤3.1) has been reported in 16 of 821 (1.9%) mifepristone treated subjects (12 in completed double blind PMD trials, and 4 in a completed Alzheimer's trial), and in 5 of 626 (0.8%) placebo treated subjects in completed PMD trials.

cortisol = test: Total serum cortisol during mifepristone treatment of Cushing's syndrome patients; conditions: for Total Serum Cortisol Visit Values: Mean ± SD
From the text: as §1
as §2, with “cortisol” for “ACTH”, “(LC-MS/MS).” for “(LC-MS/MS). Commercial kits for measuring ACTH are readily available, e.g., from Mayo clinic (Test ID: ACTH), Siemens Healthcare Global (Immulite® 2000 ACTH assay), and Roche Molecular Diagnostics (Catalog No. 03255751190).”, “LC-MS/MS,” for “a radioimmunoassay (RIA), most preferable a two-site MA,”
as §3, §4, §5

[2] = 43 subjects with Cushing's disease
[3] = Day 210 (6 week follow-up), Hypokalemic
[4] = Day 210 (6 week follow-up), Non-Hypokalemic

`CC#C[C@]1(O)CC[C@H]2[C@@H]3CCC4=CC(=O)CCC4=C3[C@@H](c3ccc(N(C)C)cc3)C[C@@]21C` [mifepristone, 11β-(4-dimethylaminophenyl)-17β-hydroxy-17α-(1-propynyl)-estra-4,9-dien-3-one] was tested, and the “ACTH increase during mifepristone treatment” value (ACTH; [2]) was “about two-fold”, the “ACTH Visit Change Values from Baseline” value (ACTH; Day 14, Hypokalemic) was 60.8 ± 99.6 (8) ng/L and the “Ratio of ACTH Visit Change Values from Baseline per Baseline (ACTH_CHG/ACTH Baseline)” value (ACTH; Day 14, Hypokalemic) was 1.87 ± 1.32 (8). The “ACTH Visit Change Values from Baseline” value (ACTH; Day 14, Non-Hypokalemic) was 30.6 ± 26.9 (38) ng/L, the “Ratio of ACTH Visit Change Values from Baseline per Baseline (ACTH_CHG/ACTH Baseline)” value (ACTH; Day 14, Non-Hypokalemic) was 1.77 ± 0.72 (38) and the “ACTH Visit Change Values from Baseline” value (ACTH; Day 42, Hypokalemic) was 86.3 ± 58.2 (6) ng/L. For the same compound, the “Ratio of ACTH Visit Change Values from Baseline per Baseline (ACTH_CHG/ACTH Baseline)” value (ACTH; Day 42, Hypokalemic) was 2.50 ± 0.61 (6), the “ACTH Visit Change Values from Baseline” value (ACTH; Day 42, Non-Hypokalemic) was 40.6 ± 54.7 (35) ng/L and the “Ratio of ACTH Visit Change Values from Baseline per Baseline (ACTH_CHG/ACTH Baseline)” value (ACTH; Day 42, Non-Hypokalemic) was 2.02 ± 0.97 (35). For the same compound, the “ACTH Visit Change Values from Baseline” value (ACTH; Day 70, Hypokalemic) was 211.8 ± 147.5 (6) ng/L, the “Ratio of ACTH Visit Change Values from Baseline per Baseline (ACTH_CHG/ACTH Baseline)” value (ACTH; Day 70, Hypokalemic) was 4.08 ± 2.51 (6) and the “ACTH Visit Change Values from Baseline” value (ACTH; Day 70, Non-Hypokalemic) was 49.2 ± 22.5 (30) ng/L. For the same compound, the “Ratio of ACTH Visit Change Values from Baseline per Baseline (ACTH_CHG/ACTH Baseline)” value (ACTH; Day 70, Non-Hypokalemic) was 2.06 ± 1.01 (30), the “ACTH Visit Change Values from Baseline” value (ACTH; Day 112, Hypokalemic) was 101.4 ± 159.6 (9) ng/L and the “Ratio of ACTH Visit Change Values from Baseline per Baseline (ACTH_CHG/ACTH Baseline)” value (ACTH; Day 112, Hypokalemic) was 2.53 ± 1.49 (9). The “ACTH Visit Change Values from Baseline” value (ACTH; Day 112, Non-Hypokalemic) was 70.2 ± 82.2 (23) ng/L, the “Ratio of ACTH Visit Change Values from Baseline per Baseline (ACTH_CHG/ACTH Baseline)” value (ACTH; Day 112, Non-Hypokalemic) was 2.47 ± 1.87 (23) and the “ACTH Visit Change Values from Baseline” value (ACTH; Day 168, Hypokalemic) was 151.2 ± 166.5 (5) ng/L. The “Ratio of ACTH Visit Change Values from Baseline per Baseline (ACTH_CHG/ACTH Baseline)” value (ACTH; Day 168, Hypokalemic) was 3.30 ± 2.54 (5), the “ACTH Visit Change Values from Baseline” value (ACTH; Day 168, Non-Hypokalemic) was 48.2 ± 73.8 (37) ng/L and the “Ratio of ACTH Visit Change Values from Baseline per Baseline (ACTH_CHG/ACTH Baseline)” value (ACTH; Day 168, Non-Hypokalemic) was 2.08 ± 1.31 (37). The “ACTH Visit Change Values from Baseline” value (ACTH; [3]) was 113.7 ± 167.7 (3) ng/L, the “Ratio of ACTH Visit Change Values from Baseline per Baseline (ACTH_CHG/ACTH Baseline)” value (ACTH; [3]) was 1.36 ± 0.46 (3) and the “ACTH Visit Change Values from Baseline” value (ACTH; [4]) was 13.4 ± 34.0 (37) ng/L. For the same compound, the “Ratio of ACTH Visit Change Values from Baseline per Baseline (ACTH_CHG/ACTH Baseline)” value (ACTH; [4]) was 1.33 ± 0.61 (37), the “rise in ACTH levels following an initial increase in mifepristone dose (FIG. 1)” value (ACTH; patients who did not experience hypokalemia) was “about 25 pg/mL” and the “Clinically meaningful hypokalemia (≤3.1), subjects” value ([1]; completed Alzheimer's trial) was 4. For the same compound, the “Hypokalemia in the range of 2.8 to 3.5 mEq/L” value ([1]; out of 33 subjects, 300 mg per day for 16 weeks) was 9 subjects, the “serum cortisol increase during mifepristone treatment” value (cortisol; [2]) was “increased to a smaller degree” and the “Total Serum Cortisol Visit Values” (cortisol; Day 14, Hypokalemic) was 1261 ± 786 (8) nmol/L. The “Total Serum Cortisol Visit Values” (cortisol; Day 14, Non-Hypokalemic) was 782 ± 246 (38) nmol/L, the “Total Serum Cortisol Visit Values” (cortisol; Day 42, Hypokalemic) was 1274 ± 401 (6) nmol/L and the “Total Serum Cortisol Visit Values” (cortisol; Day 42, Non-Hypokalemic) was 828 ± 249 (35) nmol/L. For the same compound, the “Total Serum Cortisol Visit Values” (cortisol; Day 70, Hypokalemic) was 1390 ± 283 (6) nmol/L, the “Total Serum Cortisol Visit Values” (cortisol; Day 70, Non-Hypokalemic) was 1025 ± 546 (30) nmol/L and the “Total Serum Cortisol Visit Values” (cortisol; Day 112, Hypokalemic) was 1318 ± 677 (9) nmol/L. For the same compound, the “Total Serum Cortisol Visit Values” (cortisol; Day 112, Non-Hypokalemic) was 813 ± 318 (23) nmol/L, the “Total Serum Cortisol Visit Values” (cortisol; Day 168, Hypokalemic) was 1298 ± 597 (5) nmol/L and the “Total Serum Cortisol Visit Values” (cortisol; Day 168, Non-Hypokalemic) was 948 ± 537 (37) nmol/L. The “Total Serum Cortisol Visit Values” (cortisol; [3]) was 1228 ± 561 (3) nmol/L and the “Total Serum Cortisol Visit Values” (cortisol; [4]) was 696 ± 477 (37) nmol/L.
